What is called IC50 is the concentration that gives 50% inhibition.

T1 sequence (P08546 whole entry): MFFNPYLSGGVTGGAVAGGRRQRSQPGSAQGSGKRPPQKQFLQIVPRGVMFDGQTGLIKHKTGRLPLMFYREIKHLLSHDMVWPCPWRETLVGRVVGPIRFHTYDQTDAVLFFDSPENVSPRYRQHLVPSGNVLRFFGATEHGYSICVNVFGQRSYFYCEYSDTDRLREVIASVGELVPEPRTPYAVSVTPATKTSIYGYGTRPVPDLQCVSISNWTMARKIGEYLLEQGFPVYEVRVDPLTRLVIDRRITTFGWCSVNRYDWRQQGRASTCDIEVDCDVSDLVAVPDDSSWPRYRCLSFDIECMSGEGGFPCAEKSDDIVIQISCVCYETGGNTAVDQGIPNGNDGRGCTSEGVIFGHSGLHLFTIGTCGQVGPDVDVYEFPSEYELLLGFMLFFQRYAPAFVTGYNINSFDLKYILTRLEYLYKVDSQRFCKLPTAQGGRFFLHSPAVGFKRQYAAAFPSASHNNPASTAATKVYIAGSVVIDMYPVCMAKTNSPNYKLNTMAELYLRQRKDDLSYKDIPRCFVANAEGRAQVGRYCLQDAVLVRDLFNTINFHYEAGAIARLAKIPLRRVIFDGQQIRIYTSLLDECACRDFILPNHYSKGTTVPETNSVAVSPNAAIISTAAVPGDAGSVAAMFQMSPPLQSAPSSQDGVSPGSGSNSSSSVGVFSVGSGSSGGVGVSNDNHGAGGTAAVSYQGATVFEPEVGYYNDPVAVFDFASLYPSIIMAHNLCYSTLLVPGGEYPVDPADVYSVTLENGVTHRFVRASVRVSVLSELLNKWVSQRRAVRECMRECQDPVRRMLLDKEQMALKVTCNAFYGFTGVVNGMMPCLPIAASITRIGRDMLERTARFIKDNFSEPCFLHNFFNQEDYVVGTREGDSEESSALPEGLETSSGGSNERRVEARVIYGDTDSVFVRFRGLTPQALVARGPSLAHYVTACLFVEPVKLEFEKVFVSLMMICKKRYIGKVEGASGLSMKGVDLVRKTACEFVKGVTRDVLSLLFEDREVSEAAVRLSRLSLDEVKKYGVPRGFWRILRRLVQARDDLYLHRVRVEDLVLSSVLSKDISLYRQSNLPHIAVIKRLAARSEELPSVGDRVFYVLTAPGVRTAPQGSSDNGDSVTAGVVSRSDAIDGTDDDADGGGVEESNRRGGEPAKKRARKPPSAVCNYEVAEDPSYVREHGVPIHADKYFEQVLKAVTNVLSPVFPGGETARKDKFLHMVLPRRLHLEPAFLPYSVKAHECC

This experiment concerns the target T1, HCMV polymerase (Human cytomegalovirus, UniProt P08546).
T1 construct: made in house; host or cells: recombinant baculovirus-infected SF-9 insect cells
In words: biochemical. The following applies: HCMV polymerase; SPA; modified assay: compounds in 100% DMSO, 4.5 mM DTT. The procedure:
The HCMV polymerase assay is performed using a scintillation proximity assay (SPA) as described in several references, such as N. D. Cook, et al., Pharmaceutical Manufacturing International, pages 49-53 (1992); K. Takeuchi, Laboratory Practice, September issue (1992); U.S. Pat. No. 4,568,649 (1986); which are incorporated by reference herein. Reactions are performed in 96-well plates. The assay is conducted in 100 μl volume with 5.4 mM HEPES (pH 7.5), 11.7 mM KCl, 4.5 mM MgCl2, 0.36 mg/ml BSA, and 90 nM ^3 H-dTTP. Assays are run with and without CHAPS, (3-[(3-Cholamidopropyl)dimethylammonio]-1-propane-sulfonate) at a final concentration of 2 mM. HCMV polymerase is diluted in enzyme dilution buffer containing 50% glycerol, 250 mM NaCl, 10 mM HEPES (pH 7.5), 100 μg/ml BSA, and 0.01% sodium azide. The HCMV polymerase, which is expressed in recombinant baculovirus-infected SF-9 cells and purified according to literature procedures, is added at 10% (or 10 μl) of the final reaction volume, i.e., 100 μl. Compounds are diluted in 50% DMSO and 10 μl are added to each well. Control wells contain an equivalent concentration of DMSO. Unless noted otherwise, reactions are initiated via the addition of 6 nM biotinylated poly(dA)-oligo(dT) template/primer to reaction mixtures containing the enzyme, substrate, and compounds of interest. Plates are incubated in a 25 C. or 37 C. H2 O bath and terminated via the addition of 40 μl/reaction of 0.5 M EDTA (pH 8) per well. Reactions are terminated within the time-frame during which substrate incorporation is linear and varied depending upon the enzyme and conditions used, i.e., 30 min. for HCMV polymerase. Ten μl of streptavidin-SPA beads (20 mg/ml in PBS/10% glycerol) are added following termination of the reaction. Plates are incubated 10 min. at 37 C., then equilibrated to room temperature, and counted on a Packard Topcount. Linear regressions are performed and IC50 's are calculated using computer software.
A modified version of the above HCMV polymerase assay is performed as described above, but with the following changes: Compounds are diluted in 100% DMSO until final dilution into assay buffer. In the previous assay, compounds are diluted in 50% DMSO. 4.5 mM dithiotherotol (DTT) is added to the polymerase buffer.
Molecule `CC(C)(C)n1cc(C(=O)NCc2ccc(Cl)cc2)c(=O)c2cc(C#CCO)ccc21` [Example 39] came in with an IC50 of 2200 nM. Molecule `COCCOCCn1cc(C(=O)NCc2ccc(Cl)cc2)c(=O)c2cc(C#CCO)ccc21` [Example 42, N-(4-Chlorobenzyl)-6-(3-hydroxy-1-propynyl)-1-[2-(2-methoxyethoxy)ethyl]-4-oxo-1,4-dihydro-3-quinolinecarboxamide] returned an IC50 of 1200 nM.

In turn, `Cn1cc(C(=O)NCc2ccc(C#N)cc2)c(=O)c2cc(C#CCO)ccc21` [Example 43, N-(4-Cyanobenzyl)-6-(3-hydroxy-1-propynyl)-1-methyl-4-oxo-1,4-dihydro-3-quinolinecarboxamide] came in with an IC50 of 9400 nM. Regarding `Cn1cc(C(=O)NCc2ccc(Cl)cc2)c(=O)c2cc(CN(CCO)CCO)ccc21` [Example 44, 6-((Bis(2-hydroxyethyl)amino)methyl)-N-(4-chlorobenzyl)-1-1-methyl-4-oxo-1,4-dihydro-3-quinolinecarboxamide.], the midpoint of inhibition, the IC50, lay at 9300 nM. Turning to `CN(CCO)Cc1ccc2c(c1)c(=O)c(C(=O)NCc1ccc(Cl)cc1)cn2C` [Example 45, N-(4-Chlorobenzyl)-6-(((2-hydroxyethyl)(methyl)amino)-methyl)-1-methyl-4-oxo-1,4-dihydro-3-quinolinecarboxamide], half-maximal inhibition (IC50) was put at 11900 nM. `Cn1cc(C(=O)NCc2ccc(Cl)cc2)c(=O)c2cc(CN3CCCOCC3)ccc21` [Example 46, N-(4-Chlorobenzyl)-1-methyl-6-(1,4-oxazepan-4-ylmethyl)-4-oxo-1,4-dihydro-3-quinolinecarboxamide] registered an IC50 of 5500 nM. To `Cn1cc(C(=O)NCc2ccc(Cl)cc2)c(=O)c2cc(CN3CCCSCC3)ccc21` [Example 47, N-(4-Chlorobenzyl)-1-methyl-4-oxo-6-(1,4-thiazepan-4-ylmethyl)-1,4-dihydro-3-quinolinecarboxamide] belongs 7200 nM. Turning to `Cn1cc(C(=O)NCc2ccc(Cl)cc2)c(=O)c2cc(CN3C[C@@H]4C[C@H]3CO4)ccc21` [Example 48, N-(4-Chlorobenzyl)-1-methyl-6-(2-oxa-5-azabicyclo(2.2. 1]-hept-5-ylmethyl)-4-oxo-1,4-dihydro-3-quinolinecarboxamide], the IC50 was found to be 13600 nM. Consider `Cn1cc(C(=O)NCc2ccc(Cl)cc2)c(=O)c2cc(CN3CCOc4ccccc43)ccc21` [Example 49, N-(4-Chlorobenzyl)-6-(2,3-dihydro-4H-1,4-benzoxazin-4-ylmethyl)-1-methyl-4-oxo-1,4-dihydro-3-quinolinecarboxamide], for which the midpoint of inhibition, the IC50, lay at 2200 nM. For the molecule `Cn1cc(C(=O)NCc2ccc(Cl)cc2)c(=O)c2cc(CN(CCO)Cc3ccccc3)ccc21` [Example 50, 6-((Benzyl(2-hydroxyethyl)amino)methyl)-N-(4-chlorobenzyl)-1-methyl-4-oxo-1,4-dihydro-3-quinolinecarboxamide], it took 11500 nM to reach half-maximal inhibition (IC50). Take `Cn1cc(C(=O)NCc2ccc(Cl)cc2)c(=O)c2cc(CN=[N+]=[N-])ccc21` [Example 51, 6-(Azidomethyl)-N-(4-chlorobenzyl)-1-methyl-4-oxo-1,4-dihydro-3-quinolinecarboxamide]: the midpoint of inhibition, the IC50, lay at 1300 nM. `Cn1cc(C(=O)NCc2ccc(Cl)cc2)c(=O)c2cc(CN3CCC(F)(F)CC3)ccc21` [Example 52, N-(4-chlorobenzyl)-6-((4,4-difluoro-1-piperidinyl)methyl)-1-methyl-4-oxo-1,4-dihydro-3-quinolinecarboxamide] yielded a half-maximal inhibitory concentration (IC50) of 9600 nM. The same measure for `Cn1cc(C(=O)NCc2ccc(Cl)cc2)c(=O)c2cc(CN3CC=C(F)CC3)ccc21` [Example 53, N-(4-Chlorobenzyl)-6-((4-fluoro-3,6-dihydro-1(2H)-pyridinyl)methyl)-1-methyl-4-oxo-1,4-dihydro-3-quinolinecarboxamide]: 11700 nM.

As for `C=Cc1ccc2c(c1)c(=O)c(C(=O)NCc1ccc(Cl)cc1)cn2C` [Example 54, N-(4-Chlorobenzyl)-1-methyl-4-oxo-6-vinyl-1,4-dihydro-3-quinolinecarboxamide], the IC50 was 3300 nM.

On to `COCCOCCOCCn1cc(C(=O)NCc2ccc(Cl)cc2)c(=O)c2cc(CN3CCOCC3)ccc21` [Example 56, N-(4-Chlorobenzyl)-1-{2-[2-(2-methoxyethoxy)ethoxy]ethyl}-6-(4-morpholinylmethyl)-4-oxo-1,4-dihydro-3-quinolinecarboxamide], for which half-maximal inhibition (IC50) required 3000 nM. With `O=C(NCc1ccc(Cl)cc1)c1cn(CCOCCO)c2ccc(CN3CCOCC3)cc2c1=O` [Example 57, N-(4-Chlorobenzyl)-1-[2-(2-hydroxyethoxy)ethyl]-6-(4-morpholinylmethyl)-4-oxo-1,4-dihydro-3-quinolinecarboxamide], it took 1200 nM to reach half-maximal inhibition (IC50). The molecule `CCOCCOCCn1cc(C(=O)NCc2ccc(Cl)cc2)c(=O)c2cc(CN3CCOCC3)ccc21` [Example 58, N-(4-Chlorobenzyl)-1-[2-(2-ethoxyethoxy)ethyl]-6-(4-morpholinylmethyl)-4-oxo-1,4-dihydro-3-quinolinecarboxamide] came in with an IC50 of 1400 nM. The same measure for `C#CCn1cc(C(=O)NCc2ccc(Cl)cc2)c(=O)c2cc(CN3CCOCC3)ccc21` [Example 59, N-(4-Chlorobenzyl)-6-(4-morpholinylmethyl)-4-oxo-1-(2-propynyl)-1,4-dihydro-3-quinolinecarboxamide]: 1900 nM. To `CCSCCn1cc(C(=O)NCc2ccc(Cl)cc2)c(=O)c2cc(CN3CCOCC3)ccc21` [Example 60, N-(4-Chlorobenzyl)-1-[2-(ethylsulfanyl)ethyl]-6-(4-morpholinylmethyl)-4-oxo-1,4-dihydro-3-quinolinecarboxamide] belongs 1100 nM; to `CN(Cc1ccc2c(c1)c(=O)c(C(=O)NCc1ccc(Cl)cc1)cn2C)CC(O)c1ccccc1` (stereo not drawn) [Example 63, N-(4-Chlorobenzyl)-6-{[(2-hydroxy-2-phenylethyl)(methyl)-amino]methyl}-1-methyl-4-oxo-1,4-dihydro-3quinolinecarboxamide], 1300 nM. `O=C(NCc1ccc(Cl)cc1)c1cn(CCN(CCO)CCO)c2ccc(CN3CCOCC3)cc2c1=O` [Example 64] came in with an IC50 of 950 nM.

As to `O=C(NCc1ccc(Cl)cc1)c1cn(CCCSCCCO)c2ccc(CN3CCOCC3)cc2c1=O` [Example 66, N-(4-Chlorobenzyl)-1-{3-[(3-hydroxypropyl)sulfanyl]propyl}-6-(4-morpholinylmethyl)-4-oxo-1,4-dihydro-3-quinolinecarboxamide], the IC50 came out at 1100 nM. Molecule `CS(=O)(=O)CCCn1cc(C(=O)NCc2ccc(Cl)cc2)c(=O)c2cc(CN3CCOCC3)ccc21` [Example 67, N-(4-Chlorobenzyl)-1-[3-(methylsulfonyl)propyl]-6-(4-morpholinylmethyl)-4-oxo-1,4dihydro-3-quinolinecarboxamide] showed an IC50 of 700 nM.

`CC[S+]([O-])CCn1cc(C(=O)NCc2ccc(Cl)cc2)c(=O)c2cc(CN3CCOCC3)ccc21` (stereo not drawn) [Example 68, N-(4-Chlorobenzyl)-1-[2-(ethylsulfinyl)ethyl]-6-(4-morpholinylmethyl)-4-oxo-1,4-dihydro-3-quinolinecarboxamide] gave an IC50 of 930 nM.

For `CCS(=O)(=O)CCn1cc(C(=O)NCc2ccc(Cl)cc2)c(=O)c2cc(CN3CCOCC3)ccc21` [Example 69, N-(4-Chlorobenzyl)-1-[2-(ethylsulfonyl)ethyl]-6-(4-morpholinylmethyl)-4-oxo-1,4-dihydro-3-quinolinecarboxamide], the half-inhibitory concentration (IC50) amounted to 900 nM. As for `O=C(NCc1ccc(Cl)cc1)c1cn(CCC[S+]([O-])CCCO)c2ccc(CN3CCOCC3)cc2c1=O` (stereo not drawn) [Example 70], the IC50 came out at 870 nM. Turning to `O=C(NCc1ccc(Cl)cc1)c1cn(CCCS(=O)(=O)CCCO)c2ccc(CN3CCOCC3)cc2c1=O` [Example 71, N-(4-Chlorobenzyl)-1-(3-[(3-hydroxypropyl)sulfonyl]propyl)-6-(4-morpholinylmethyl)-4-oxo-1,4-dihydro-3-quinolinecarboxamide], the IC50 amounted to 800 nM. The same measure for `O=C(NCc1ccc(Cl)cc1)c1cn(CCSc2ccccc2)c2ccc(CN3CCOCC3)cc2c1=O` [Example 72]: 3000 nM. As to `CSCn1cc(C(=O)NCc2ccc(Cl)cc2)c(=O)c2cc(CN3CCOCC3)ccc21` [Example 73], inhibition was half-maximal at 1100 nM (IC50).

For `Cn1cc(C(=O)NCc2ccc(Cl)cc2)c(=O)c2cc(CN3CC(O)(O)C3)ccc21` [Example 78, N-(4-Chlorobenzyl)-6-[(3,3-dihydroxy-1-azetidinyl)methyl]-1-methyl-4-oxo-1,4-dihydro-3-quinolinecarboxamide], half-maximal inhibition (IC50) required 270 nM.

The record behind these values is patent publication US6248739A, “Quinolinecarboxamides as antiviral agents” (Pharmacia & Upjohn Company, priority 1999, dated 2001).
